Read-outs that look alike come from different tables or passages of the source.
Key:
[1] = Cytotoxicity by uptake of [3H]thymidine in uninfected CEM-SS cells; assay type: cell-based; settings: human; uptake of [3H]thymidine in uninfected CEM-SS cells (Table I); read-out: 50% Inhibitory Concentration, Cytotoxicity
Method: CEM-SS cells were seeded in 96 well plates (10,000 cells per well) in growth medium containing various concentrations of test compound and incubated at 37° C. in a CO2 incubator. After 36 hours incubation the cells were pulse-labeled for 4 hours at 37° C. with 1 μCi ^3H-TdR uptake into cellular DNA. Controls consisted of CEM-SS cells not treated with drug and pulse-labeled for 4 hours with [^3H]thymidine (positive control) or harvested immediately after addition of [^3H]thymidine (negative control). The harvested samples were counted by scintillation spectrometry to obtain a mean±one S.D. for each set of triplicate wells. The data were entered into a computer and used to determine a IC50 for cell cytotoxicity. Each experiment was replicated at least once.

HIV = assay type: cell-based; settings: persistently infected monocyte/macrophages and T-cells; reverse transcriptase, p24 core antigen, infectious virus; in words
HIV-1 = assay: microbe, parasite or virus in culture; settings: for IC50: Human immunodeficiency virus 1, CEM-SS
Method: CEM-SS cells were seeded at 10,000 cells per well into 96-cell plates precoated with poly L-lysine. The cell monolayers were infected with about 50 plaque forming units of HIV-1. After 1 hr for virus attachment, the cell monolayers were overlaid with growth medium with or without added test compound. After 3 days incubation at 37° C. in a CO2 incubator, the cell monolayers received a second overlay of growth medium with or without added test compound and incubation at 37° C. continued for a total of 5 days. HIV-1 plaques were counted, the counts entered into a computer and a IC50 for HIV-1 plaque formation was determined. Each experiment was replicated at least once.
Dose-response relationships were used to compare drug effects. These were constructed by linearly regressing the percent inhibition of parameters derived in the preceding sections against log drug concentrations. The 50% inhibitory (I50) concentrations were calculated from the regression lines.

HCMV = HCMV plaque (focus) reduction assay in HFF cells; assay type: cell-based, human cytomegalovirus; settings: in words
RT = RT (Human immunodeficiency virus type 1 group M subtype B, UniProt P04585); assay: RT inhibition assays; assay type: biochemical; settings: in words

Cc1cn([C@H]2C[C@H](N=[N+]=[N-])[C@@H](CO)O2)c(=O)[nH]c1=O [AZT, zidovudine]
IC50 at 36 h [1]: 5000 nM | activity in reducing HIV production in persistently infected cells (HIV): not active | IC50 (HIV-1; read-out: 50% Inhibitory Concentration, Antiviral Activity: HIV, syncytial assay in CEM-SS cells (Table I)): 2.7 nM | IC50 (HIV-1; read-out: Syncytial Assay 50% Inhibitory Concentration, HIV-1G-691 (post AZT therapy), clinical isolate resistant to AZT): 210 nM | IC50 (HIV-1; read-out: Syncytial Assay 50% Inhibitory Concentration, HIV-1G-762 (pre AZT therapy), clinical isolate sensitive to AZT): 0.2 nM | IC50 (HIV-1; read-out: Syncytial Assay 50% Inhibitory Concentration, HIV-1G-910 (post AZT therapy)): 7200 nM | IC50 (HIV-1; read-out: Syncytial Assay 50% Inhibitory Concentration, HIV-1H-1112 (pre AZT therapy)): < 1 nM | IC50 (HIV-1; read-out: Syncytial Assay 50% Inhibitory Concentration, HIV-1IIIB (Table III)): 2 nM | Differential Selectivity (HIV) (HIV-1; cytotoxicity in CEM-SS cells versus HIV syncytial assay): 1852 | activity against HCMV (HCMV): inactive

CN1N=C(N)c2cn(C3OC(COP(=O)(O)OP(=O)(O)OP(=O)(O)O)C(O)C3O)c3ncnc1c23 (stereo not drawn) [TCN-triphosphate]
inhibition of RT enzyme (RT): do not act via inhibition of this enzyme

Nc1ccn([C@H]2CC[C@@H](CO)O2)c(=O)n1 [ddC, dideoxycytidine]
activity in reducing HIV production in persistently infected cells (HIV): not active

Reference: US6413944B1 (Regents of the University of Michigan, priority 1991, dated 2002)
